Experimental data as given in PubChem BioAssay (NCI).
≈ marks a conversion by molar mass, not a printed value.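 Growth conditions: 96-well plates. Treatment: test compound, 48 hours, 5 concentrations. Analysis: linear interpolation between bracketing concentrations; unreached endpoints set to highest concentration. At the GI50, growth is halved. At the TGI there is no net growth.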

Experiments:
Test in all cases: DTP human tumour cell line panel, 48 h
SK-OV-3 ovarian = test system: SK-OV-3 ovarian
MOLT-4 leukemia = test system: MOLT-4 leukemia
UACC-62 melanoma = test system: UACC-62 melanoma
CCRF-CEM leukemia = test system: CCRF-CEM leukemia
K-562 leukemia = test system: K-562 leukemia
UACC-257 melanoma = test system: UACC-257 melanoma
OVCAR-4 ovarian = test system: OVCAR-4 ovarian
RPMI-8226 leukemia = test system: RPMI-8226 leukemia
MCF7 breast = test system: MCF7 breast
EKVX NSCLC = test system: EKVX NSCLC
DLD-1 colon = test system: DLD-1 colon
SF-539 CNS = test system: SF-539 CNS
SNB-78 CNS = test system: SNB-78 CNS
DMS 114 small cell lung = test system: DMS 114 small cell lung
HOP-18 NSCLC = test system: HOP-18 NSCLC
TK-10 renal = test system: TK-10 renal
DU-145 prostate = test system: DU-145 prostate

| SMILES | TGI (SK-OV-3 ovarian) [µM] | TGI (MOLT-4 leukemia) [µM] | TGI (UACC-62 melanoma) [µM] | TGI (CCRF-CEM leukemia) [µM] | TGI (K-562 leukemia) [µM] | TGI (UACC-257 melanoma) [µM] | TGI (OVCAR-4 ovarian) [µM] | TGI (RPMI-8226 leukemia) [µM] | TGI (MCF7 breast) | TGI (EKVX NSCLC) [µM] | TGI (DLD-1 colon) [µM] | TGI (SF-539 CNS) [µM] | TGI (SNB-78 CNS) [µM] | TGI (DMS 114 small cell lung) [µM] | TGI (HOP-18 NSCLC) [µM] | TGI (TK-10 renal) | TGI (DU-145 prostate) | GI50 (TK-10 renal) [µg/mL] | GI50 (MCF7 breast) [µg/mL] | GI50 (DU-145 prostate) [µg/mL] |
| --- | --- | --- | --- | --- | --- | --- | --- | --- | --- | --- | --- | --- | --- | --- | --- | --- | --- | --- | --- | --- |
| O=C(O)CCC(NC(=O)c1ccc(Nc2cnc3cc(C(F)(F)F)ccc3n2)cc1)C(=O)O (stereo not given) | > 100 | > 100 | > 100 | > 100 | > 100 | > 100 | > 100 | > 100 | > 100 µM | > 100 | > 100 | > 100 | > 100 | > 100 | > 100 |  |  |  |  |  |
| O=Cc1cn(CCCCCCCCn2cc(C=O)c3ccccc32)c2ccccc12 | > 10 | > 10 | > 10 | > 10 | > 10 |  | > 10 | > 10 | > 10 µM | > 10 |  | > 10 |  |  |  | > 10 µM | > 10 µM |  |  |  |
| ICC1CCCO1 (stereo not given) |  | > 100 |  | > 100 |  | > 100 | > 100 | > 100 |  | > 100 | > 100 | > 100 | > 100 | > 100 | > 100 | > 100 µM |  |  |  |  |
| CCN(CC)CCNc1ccc2ncn3c4ccc(OC)cc4c(=O)c1c23 | 23.8 | 11 | 33.9 | 19 | 22.7 | 28.3 | 8.89 |  | > 100 µM | 29.2 | 20 | 20 | 30.9 | 25.2 | 62 | 29.2 µM | 20.7 µM |  |  |  |
| O=C(NN1C(=O)CS(=O)(=O)C1c1ccc(Cl)c(Cl)c1)c1ccncc1 (stereo not given) | > 100 | > 71.8 | > 100 | > 86.1 | > 100 | > 100 | > 100 | > 71.5 | > 100 µM | > 100 | > 100 | > 100 | > 100 | > 100 | > 100 |  |  |  |  |  |
| CC(=O)[O-].CC(=O)[O-].O=C(N/N=C/c1cc(Cl)cc(Cl)c1[OH2+])c1ccncc1.[Mn+2] | 51.1 | 0.84 | 5.54 | 2.15 | 14.8 | 14.7 |  | 8.88 |  | 7.76 |  | 13.4 |  |  |  | 27.3 µM |  |  |  |  |
| Cc1cc(O)c2c(c1)C(=O)c1c(c(O)cc(O)c1-c1c(O)cc(O)c3c1C(=O)c1cc(C)cc(O)c1C3=O)C2=O | 62.6 | 50.8 | 25.4 | 48.3 | 55.6 | 50 | 26.9 | 32.9 | 48.8 µM | 34.9 | 59.5 | 36.6 | 105 | 63 | 39.9 |  |  |  |  |  |
| Cc1nc2nc(C)n(CCN3CCOCC3)c(=O)c2c(-c2cccc([N+](=O)[O-])c2)c1C(=O)CCCCCCCCCCN1CCC(c2ccccc2)(c2ccccc2)CC1 |  |  |  |  |  |  |  |  | 3.65 µg/mL |  |  |  |  |  |  | 4.45 µg/mL | 4.56 µg/mL | 2.41 (≈ 2.96 µM) | 1.67 (≈ 2.06 µM) | 2.51 (≈ 3.09 µM) |
| CC1(c2ccccc2)O[C@@H]2C[C@H]3[C@@H]4CCC5=CC(=O)C=C[C@]5(C)[C@@]4(F)[C@@H](O)C[C@]3(C)[C@]2(C(=O)CO)O1 (stereo not given in full) |  |  | 35.6 |  | 34.4 | 33.1 | 28.3 | 17.2 | 29.9 µM | 30.4 |  |  |  |  |  | 41.6 µM | 35 µM |  |  |  |
| CCOP(=O)(C/C=C/Cn1ncc(=O)[nH]c1=O)OCC |  | > 100 |  | > 100 | > 100 | > 100 | > 100 | > 100 | > 100 µM | > 100 |  | > 100 |  |  |  | > 100 µM | > 100 µM |  |  |  |
| C=C1CC(OC)(C(OC)C(=O)N[C@H]2OCO[C@H]3C2O[C@H](C[C@@H](COC)OC)C(C)(C)C3OC)O[C@H](C)[C@@H]1C (stereo not given in full) | 8.12 | 1.88 | 3.72 | 1.43 | 3.38 | 14.7 | 4.25 | 0.917 | > 47 µM |  | 9.33 | 2.85 | 4.81 | 13.9 | 23.9 |  |  |  |  |  |
| Cc1cc(=O)oc2c1cc1ccc3cccc4ccc2c1c34 | > 100 | > 100 | > 100 | > 100 | > 100 |  |  | > 100 |  | > 100 | > 100 | > 100 | > 100 |  | > 100 | > 100 µM |  |  |  |  |
| CN1CCC2(c3ccccc3)CC(=O)/C(=C/c3ccc(Cl)c(Cl)c3)C1C2 (stereo not given) | 13.6 | 7.81 | 3 | 5.15 | 7.28 | 23.3 | 7.21 | 5.13 | 17.3 µM | 9.63 |  | 4.35 |  |  |  | 11.7 µM | 11.9 µM |  |  |  |
